Measured values as given in patent US6403534B1, “Uracil compounds and use thereof” (Sumitomo Chemical Company, Limited, priority 2000, dated 2002).

Legend:
barnyardgrass [1] = test: Test Example 2: soil surface treatment of field; type: in vivo, Echinochloa crus-galli; conditions: soil surface spray, 500 g/ha, examined 19 days after application
Excerpt: (§1) Test for Soil Surface Treatment of Field
(§2) A cylindrical plastic pot having a diameter of 10 cm and a depth of 10 cm was filled with soil and then seeded with barnyardgrass, blackgrass, ivyleaf morningglory and velvetleaf. Then, each of compounds 1-2, 1-3, 1-7, 1-19 and 1-28 was formulated into an emulsifiable concentrate according to Formulation Example 2 and then diluted to the prescribed amount with water, and the dilution was uniformly sprayed over the surface of the soil with a sprayer at a rate of 1000 liters per hectare. After the application, the test plants were grown in the greenhouse for 19 days, and the herbicidal activity was examined.

blackgrass [2] = test: Test Example 1: foliar treatment of field; type: in vivo, Alopecurus myosuroides; conditions: foliar spray, 125 g/ha, plants grown 14 days before, examined 16 days after application
Procedure: (§3) Test for Foliar Treatment of Field
as §2, with “and velvetleaf These test plants were grown in a greenhouse for 14 days.” for “and velvetleaf.”, “with water containing a spreading agent” for “with water,”, “the foliage” for “the surface”, “the test plants” for “the soil”, “for 16” for “for 19”, “was determined.” for “was examined.”

velvetleaf [3] = test: Test Example 1: foliar treatment of field; type: in vivo, Abutilon theophrasti; conditions: foliar spray, 125 g/ha, plants grown 14 days before, examined 16 days after application
Procedure: as §3
as §2, with “and velvetleaf These test plants were grown in a greenhouse for 14 days.” for “and velvetleaf.”, “with water containing a spreading agent” for “with water,”, “the foliage” for “the surface”, “the test plants” for “the soil”, “for 16” for “for 19”, “was determined.” for “was examined.”

ivyleaf morningglory [4] = test: Test Example 2: soil surface treatment of field; type: in vivo, Ipomoea hederacea; conditions: soil surface spray, 500 g/ha, examined 19 days after application
Excerpt: as §1, §2

barnyardgrass [5] = test: Test Example 1: foliar treatment of field; type: in vivo, Echinochloa crus-galli; conditions: foliar spray, 125 g/ha, plants grown 14 days before, examined 16 days after application
Procedure: as §3
as §2, with “and velvetleaf These test plants were grown in a greenhouse for 14 days.” for “and velvetleaf.”, “with water containing a spreading agent” for “with water,”, “the foliage” for “the surface”, “the test plants” for “the soil”, “for 16” for “for 19”, “was determined.” for “was examined.”

velvetleaf [6] = test: Test Example 2: soil surface treatment of field; type: in vivo, Abutilon theophrasti; conditions: soil surface spray, 500 g/ha, examined 19 days after application
Excerpt: as §1, §2

ivyleaf morningglory [7] = test: Test Example 1: foliar treatment of field; type: in vivo, Ipomoea hederacea; conditions: foliar spray, 125 g/ha, plants grown 14 days before, examined 16 days after application
Procedure: as §3
as §2, with “and velvetleaf These test plants were grown in a greenhouse for 14 days.” for “and velvetleaf.”, “with water containing a spreading agent” for “with water,”, “the foliage” for “the surface”, “the test plants” for “the soil”, “for 16” for “for 19”, “was determined.” for “was examined.”

blackgrass [8] = test: Test Example 2: soil surface treatment of field; type: in vivo, Alopecurus myosuroides; conditions: soil surface spray, 500 g/ha, examined 19 days after application
Excerpt: as §1, §2

giant foxtail = test: Test Example 4: soil surface treatment of field; type: in vivo, Setaria faberi; parameters: key: “0” means that there was no or little difference in the degree of germination or growth between the treated and the untreated tested plants at the time of examination; “10” means that the test plants died completely or their germination or growth was completely inhibited; conditions: index 0 to 10, 12 days after application
Excerpt: (§4) Test for Soil Surface Treatment of Field A plastic pot having an area of (26.5×19) cm^2 and a depth of 7 cm was filled with soil and then seeded with ivyleaf morningglory, velvetleaf, barnyardgrass and giant foxtail. Then, each of the test compounds was formulated into an emulsifiable concentrate according to Formulation Example 2 and then diluted to the prescribed amount with water, and the dilution was uniformly sprayed over the surface of the soil with a sprayer at a rate of 1000 liters per hectare. After the application, the test plants were grown in the greenhouse for 12 days, and the herbicidal activity was examined. The herbicidal activity was evaluated by the same method as in Test Example 3.

barnyardgrass [9] = test: Test Example 4: soil surface treatment of field; type: in vivo, Echinochloa crus-galli; parameters: key: “0” means that there was no or little difference in the degree of germination or growth between the treated and the untreated tested plants at the time of examination; “10” means that the test plants died completely or their germination or growth was completely inhibited; conditions: index 0 to 10, 12 days after application
Excerpt: as §4

ivyleaf morningglory [10] = test: Test Example 3: foliar treatment of field; type: in vivo, Ipomoea hederacea; parameters: key: “0” means that there was no or little difference in the degree of germination or growth between the treated and the untreated tested plants at the time of examination; “10” means that the test plants died completely or their germination or growth was completely inhibited; conditions: index 0 to 10, 16 days after application
Procedure: (§5) Test for Foliar Treatment of Field A cylindrical plastic pot having a diameter of 10 cm and a depth of 10 cm was filled with soil and then seeded with ivyleaf morningglory and blackgrass. These test plants were grown in a greenhouse for 10 days. Then, each of the test compounds was formulated into an emulsifiable concentrate according to Formulation Example 2 and then diluted to the prescribed amount with water containing a spreading agent and the dilution was uniformly sprayed over the foliage of the test plants with a sprayer at a rate of 1000 liters per hectare. After the application, the test plants were grown in the greenhouse for 16 days, and the herbicidal activity was examined.

ivyleaf morningglory [11] = test: Test Example 4: soil surface treatment of field; type: in vivo, Ipomoea hederacea; parameters: key: “0” means that there was no or little difference in the degree of germination or growth between the treated and the untreated tested plants at the time of examination; “10” means that the test plants died completely or their germination or growth was completely inhibited; conditions: index 0 to 10, 12 days after application
Excerpt: as §4

velvetleaf [12] = test: Test Example 4: soil surface treatment of field; type: in vivo, Abutilon theophrasti; parameters: key: “0” means that there was no or little difference in the degree of germination or growth between the treated and the untreated tested plants at the time of examination; “10” means that the test plants died completely or their germination or growth was completely inhibited; conditions: index 0 to 10, 12 days after application
Excerpt: as §4

blackgrass [13] = test: Test Example 3: foliar treatment of field; type: in vivo, Alopecurus myosuroides; parameters: key: “0” means that there was no or little difference in the degree of germination or growth between the treated and the untreated tested plants at the time of examination; “10” means that the test plants died completely or their germination or growth was completely inhibited; conditions: index 0 to 10, 16 days after application
Procedure: as §5

| SMILES | herbicidal activity (germination of barnyardgrass) (barnyardgrass [1]) | herbicidal activity (growth of blackgrass) (blackgrass [2]) | herbicidal activity (growth of velvetleaf) (velvetleaf [3]) | herbicidal activity (germination of ivyleaf morningglory) (ivyleaf morningglory [4]) | herbicidal activity (growth of barnyardgrass) (barnyardgrass [5]) | herbicidal activity (germination of velvetleaf) (velvetleaf [6]) | herbicidal activity (growth of ivyleaf morningglory) (ivyleaf morningglory [7]) | herbicidal activity (germination of blackgrass) (blackgrass [8]) | Herbicidal activity Giant foxtail (giant foxtail; dosage 32 g/ha) | Herbicidal activity Giant foxtail (giant foxtail; dosage 125 g/ha) | Herbicidal activity Giant foxtail (giant foxtail; dosage 500 g/ha) | Herbicidal activity Barnyard grass (barnyardgrass [9]; dosage 32 g/ha) | Herbicidal activity Barnyard grass (barnyardgrass [9]; dosage 125 g/ha) | Herbicidal activity Barnyard grass (barnyardgrass [9]; dosage 500 g/ha) | Herbicidal activity Ivyleaf morningglory (ivyleaf morningglory [10]; dosage 8 g/ha) | Herbicidal activity Ivyleaf morningglory (ivyleaf morningglory [10]; dosage 32 g/ha) | Herbicidal activity Ivyleaf morningglory (ivyleaf morningglory [10]; dosage 125 g/ha) | Herbicidal activity Ivyleaf morningglory (ivyleaf morningglory [11]; dosage 32 g/ha) | Herbicidal activity Ivyleaf morningglory (ivyleaf morningglory [11]; dosage 125 g/ha) | Herbicidal activity Ivyleaf morningglory (ivyleaf morningglory [11]; dosage 500 g/ha) | other results |
| --- | --- | --- | --- | --- | --- | --- | --- | --- | --- | --- | --- | --- | --- | --- | --- | --- | --- | --- | --- | --- | --- |
| CSC(=O)C1(Oc2cc(-n3c(=O)cc(C(F)(F)F)n(C)c3=O)c(F)cc2Cl)CC1 [Compound 1-19] | completely controlled | completely controlled | completely controlled | completely controlled | completely controlled | completely controlled | completely controlled | completely controlled | – | – | – | – | – | – | – | – | – | – | – | – | – |
| C=CCOC(=O)C1(Oc2cc(-n3c(=O)cc(C(F)(F)F)n(C)c3=O)c(F)cc2Cl)CC1 [Compound 1-7] | completely controlled | completely controlled | completely controlled | completely controlled | completely controlled | completely controlled | completely controlled | completely controlled | 10 | 10 | 10 | 6 | 10 | 10 | 10 | 10 | 10 | 2 | 10 | 10 | Herbicidal activity Velvet leaf (velvetleaf [12]; dosage 32 g/ha): 10; Herbicidal activity Velvet leaf (velvetleaf [12]; dosage 125 g/ha): 10; Herbicidal activity Velvet leaf (velvetleaf [12]; dosage 500 g/ha): 10; Herbicidal activity Blackgrass (blackgrass [13]; dosage 8 g/ha): 5; Herbicidal activity Blackgrass (blackgrass [13]; dosage 32 g/ha): 6; Herbicidal activity Blackgrass (blackgrass [13]; dosage 125 g/ha): 10 |
| CCOC(=O)C1(Oc2cc(-n3c(=O)cc(C(F)(F)F)n(C)c3=O)c(F)cc2Cl)CC1 [Compound 1-3, ethyl 1-[2-chloro-4-fluoro-5-{3-methyl-2,6-dioxo-4-(trifluoromethyl)-1,2,3,6-tetrahydropyrimidin-1-yl}phenoxy]cyclopropanecarboxylate] | completely controlled | completely controlled | completely controlled | completely controlled | completely controlled | completely controlled | completely controlled | completely controlled | – | – | – | – | – | – | – | – | – | – | – | – | – |
| C=CCOC(=O)C(C)(C)Oc1cc(-n2c(=O)cc(C(F)(F)F)n(C)c2=O)c(F)cc1Cl [Comparative compound A, reference compound] | – | – | – | – | – | – | – | – | 4 | 10 | 10 | 1 | 7 | 10 | 7 | 10 | 10 | 0 | 4 | 8 | Herbicidal activity Velvet leaf (velvetleaf [12]; dosage 32 g/ha): 3; Herbicidal activity Velvet leaf (velvetleaf [12]; dosage 125 g/ha): 10; Herbicidal activity Velvet leaf (velvetleaf [12]; dosage 500 g/ha): 10; Herbicidal activity Blackgrass (blackgrass [13]; dosage 8 g/ha): 3; Herbicidal activity Blackgrass (blackgrass [13]; dosage 32 g/ha): 4; Herbicidal activity Blackgrass (blackgrass [13]; dosage 125 g/ha): 6 |
| COC(=O)C(CC(C)C)NC(=O)C1(Oc2cc(-n3c(=O)cc(C(F)(F)F)n(C)c3=O)c(F)cc2Cl)CC1 (stereo not shown) [Compound 1-28] | completely controlled | completely controlled | completely controlled | completely controlled | completely controlled | completely controlled | completely controlled | completely controlled | – | – | – | – | – | – | – | – | – | – | – | – | – |
| COC(=O)C1(Oc2cc(-n3c(=O)cc(C(F)(F)F)n(C)c3=O)c(F)cc2Cl)CC1 [Compound 1-2, methyl 1-[2-chloro-4-fluoro-5-{3-methyl-2,6-dioxo-4-(trifluoro-methyl)-1,2,3,6-tetrahydropyrimidin-1-yl}phenoxy]cyclo-propanecarboxylate] | completely controlled | completely controlled | completely controlled | completely controlled | completely controlled | completely controlled | completely controlled | completely controlled | – | – | – | – | – | – | – | – | – | – | – | – | – |
